We go through three molecules from patent US10195187B2, “Oxybutynin-xanomeline transdermal therapeutic system combinations” (Chase Pharmaceuticals Corporation, priority 2015, dated 2019).

SMILES strings stand for the structures.

One data set has as its system muscarinic receptors. The note with it: oral and iontophoretic patch administration; cited from earlier work.
For data set [1] the following is noted: McCrery and Appell 2006; cited from earlier work.
The subject of data set [2] is Male Swiss mice. Briefly: Antagonism of xanomeline-induced diarrhea in mice by oxybutynin (fecal pellet count). The data set is classed as in vivo, mouse. The note with it: oxybutynin i.p. 0.3 to 30 mg/kg, 30 min before xanomeline 30 mg/kg.
Protocol: The total number of fecal pellets for each mouse was counted over time. An analysis of variance (ANOVA) was performed on the results. Fisher's Protected Least Significant Difference was used for pairwise comparisons; p values≤0.05 were considered significant. Grubbs' test (http (hypertext transfer protocol) www at graphpad.com/quickcalcs/Grubbs1.cfm) was used to detect outliers for each parameter in each experimental group. […] Mice were placed individually in cages without any bedding materials. During the experiment the number of fecal pellets was counted at different time-points as outlined below:
T0: administration of oxybutinin.
T30 min: administration of vehicle or xanomeline.
T 30 min to T 2.5 h: counting of accumulated fecal pellets excreted.
T+2.5 h to T+4.5 h: counting of accumulated fecal pellets excreted.
The total number of fecal pellets for each mouse was counted over time. An analysis of variance (ANOVA) was performed on the results. Fisher's Protected Least Significant Difference was used for pairwise comparisons. The p value≤0.05 were considered significant. Grubbs' test (http (hypertext transfer protocol) www at graphpad.com/quickcalcs/Gnibbs1.cfm) was used to detect outliers for each parameter in each experimental group.
In data set [3] the test system is Male Swiss mice. Briefly: T-maze continuous alternation task (T-CAT) in mice. The data set is classed as in vivo, mouse. From the text: Evaluation of Cognition with Oxybutynin and Xanomeline in the T-maze Alternation Task in Mice
The T-maze continuous alternation task (T-CAT) is useful as model for studying compounds with cognitive enhancing properties. The T-maze consists of 2 choice arms and 1 start arm mounted to a square center. Manual doors are provided to close specific arms during the force choice alternation task. Male Swiss mice (4-6 weeks old), N=10 per treatment group were used, and were pre-treated with:
Thirty minutes later mice were treated with either vehicle or one of 4 doses of xanomeline:
a dose that caused diarrhea.
Mice were randomly assigned to one of the different experimental treatment groups. Each animal was identified by its group name, cage number, series (day) of experiment, and number (1 to 10) written with permanent ink on the tail.
The T-maze apparatus is made of gray Plexiglas with a main stem (55 cm long×10 cm wide×20 cm high) and two arms (30 cm long×10 cm wide×20 cm high) positioned at 90 degree angle relative to the main stem. A start box (15 cm long×10 cm wide) is separated from the main stem by a guillotine door. Horizontal doors are also provided to close specific arms during the force choice alternation task. The experimental protocol consisted of one single session, which started with 1 “forced-choice” trial, followed by 14 “free-choice” trials. In the first “forced-choice” trial, animals were confined for 5 seconds to the start arm and then were released while either the left or the right goal arm was blocked by the horizontal door. Animals then negotiated the maze, eventually entering the open goal arm, and returned to the start position. […] The percentage of alternation over the 14 free-choice trials was determined for each mouse and was used as an index of working memory performance. […] The drug-induced improvement of memory was calculated by setting the respective response of the saline/vehicle as 100% and that of the test group as 0% reversion. […]

The subject of data set [4] is patients with Alzheimer disease. The settings on record: cited from earlier work.
Data set [5] has as its system Male Swiss mice. Briefly: Dose-response to xanomeline in a mouse model of diarrhea (fecal pellet count). The note with it: xanomeline i.p. 0.3 to 30 mg/kg. The data set is classed as in vivo. From the text:
Study 1—Establishment of the Dose-Response to Xanomeline in a Mouse Model of Diarrhea.
Male Swiss mice (4-6 weeks old), N=10 per treatment group were used, and treated intra-peritoneally (i.p.) with either vehicle (vehicle group) or increasing doses of xanomeline, a representative muscarinic agonist. Mice were randomly assigned to one of two experimental groups (vehicle; or increasing doses of xanomeline). Each animal was identified by its group name, cage number, series (day) of experiment, and number (1 to 10) written with permanent ink on the tail. Mice were placed individually in cages without any bedding materials. During the experiment the number of fecal pellets were counted at different time-points, starting one hour before the time of the administration of the test compound (T0), as outlined below:
T−1 h to T0: counting of the accumulated fecal pellets excreted.
T0: administration of the test compound.
T0 to T+2 h: counting of the accumulated fecal pellets excreted.
T+2 h to T+4 h: counting of the accumulated fecal pellets excreted.
The total number of fecal pellets for each mouse was counted over time. An analysis of variance (ANOVA) was performed on the results. […] During the experiment the number of fecal pellets was counted at different time-points as outlined below: […]

As to `NC(=O)C(c1ccccc1)(c1ccccc1)[C@@H]1CCN(CCc2ccc3c(c2)CCO3)C1` [darifenacin], the “effectiveness relative to other muscarinic antagonists in combination with muscarinic agonists” value in the data set on muscarinic receptors is recorded as “less effective than the other muscarinic antagonists”.

In the case of `CCN(CC)CC#CCOC(=O)C(O)(c1ccccc1)C1CCCCC1` (stereo not shown) [oxybutynin, 4-diethylaminobut-2-ynyl 2-cyclohexyl-2-hydroxy-2-phenylethanoate], in data set [1], the “crossing of the blood brain barrier” value is given as “able to cross the blood brain barrier”. Further, the “antagonism of xanomeline-induced diarrhea (fecal pellets)” value in the data set with Male Swiss mice [2] is given as “dose-dependently antagonized the diarrhea induced by xanomeline”. Besides, the “ability to perform the T-maze test after oxybutynin pretreatment” value in the data set with Male Swiss mice [3] (i.p. oxybutynin 30 min before xanomeline) is “restored the animals' ability to perform the T-maze test”.

On to `CCCCCCOc1nsnc1C1=CCCN(C)C1` [xanomeline, 3-[4-(Hexyloxy)-1,2,5-thiadiazol-3-yl]-1,2,5,6-tetrahydro-1-methylpyridine], for which the “cognitive and behavioral symptoms of Alzheimer disease compared to placebo” value in data set [4] (6-month trial, Bodick et al, 1997) is “significantly improve cognitive and behavioral symptoms of Alzheimer disease”. Also, the discontinuation rate entry in data set [4] (Alzheimer's patient population, Mirza et al. 2003) was “higher than 50%”. Also, the side effects result in data set [4] (patients with Alzheimer disease, Bodick et al, 1997) is “dose-dependent unacceptable side effects, including bradycardia, gastro-intestinal distress, excessive salivation, and sweating”. In the data set on Male Swiss mice [5], the “diarrhea (number of fecal pellets excreted)” value is reported as “dose-dependently causes diarrhea”. The “ability to perform the T-maze test at the higher dose” value in the data set on Male Swiss mice [3] (i.p. xanomeline, higher dose (dose that caused diarrhea)) is on record as “animals were too sick to perform the test”. Also, the “performance in the T-maze (percentage of alternation)” value in the data set with Male Swiss mice [3] (i.p. xanomeline, mice) was “dose-dependent increase in performance in the T-maze”.
